# Legend:
# [1] = tested on: Human immunodeficiency virus 1; experiment: microbe, parasite or virus in culture; conditions: Human immunodeficiency virus 1, IIIB, MT4
# Description: Antiviral activity against HIV-1 IIIB harboring reverse transcriptase Y188L mutant infected in human MT4 cells by MTT assay
# [2] = tested on: Human immunodeficiency virus 1; experiment: Antiviral activity against HIV-1 IIIB harboring reverse transcriptase […] mutant infected in human MT4 cells by MTT assay; type: functional, organism-based; conditions: Human immunodeficiency virus 1, IIIB
# [3] = Cytotoxicity against human MT4 cells assessed as reduction in cell viability by MTT assay; type: toxicity, cell-based
# [4] = tested on: Human immunodeficiency virus 1; experiment: Antiviral activity against HIV-1 IIIB harboring reverse transcriptase K103N mutant infected in human MT4 cells by MTT assay; type: functional, organism-based; conditions: Human immunodeficiency virus 1, IIIB
# [5] = tested on: Human immunodeficiency virus 1; experiment: Antiviral activity against HIV-1 IIIB harboring reverse transcriptase E138K mutant infected in human MT4 cells by MTT assay; type: functional, organism-based; conditions: Human immunodeficiency virus 1, IIIB
# [6] = tested on: Human immunodeficiency virus 1; experiment: microbe, parasite or virus in culture; conditions: Human immunodeficiency virus 1, IIIB, MT4; remark: listed apart in the source
# Description: Antiviral activity against wild type HIV-1 IIIB infected in human MT4 cells assessed as protection against virus-induced cytopathic effect by MTT assay
# in vitro [7] = conditions: human, MT4 cells
# Description: Selectivity index, ratio of CC50 for cytotoxicity against human MT4 cells to EC50 for antiviral activity against wild type HIV-1 IIIB infected in human MT4 cells
# [8] = molecular target: Human immunodeficiency virus type 1 reverse transcriptase (Human immunodeficiency virus 1, UniProt Q72547)
# Description: Inhibition of HIV-1 reverse transcriptase using oligo(dT)16 as primer measured after 40 mins by picogreen-dye based spectrofluorometric analysis
# [9] = tested on: Human immunodeficiency virus 1; experiment: Antiviral activity against HIV-1 IIIB harboring reverse transcriptase Y181C mutant infected in human MT4 cells by MTT assay; type: functional, organism-based; conditions: Human immunodeficiency virus 1, IIIB
# in vitro [10] = conditions: human
# [11] = Metabolic stability in human liver assessed as intrinsic clearance in microsomes at 1 uM measured up to 45 mins in presence of NADPH by LC-MS/MS analysis; type: ADME; conditions: read-out: CLH
# in vitro [12] = conditions: human; remark: listed apart in the source
SMILES,EC50 [6] [nM],IC50 [8] [nM],"CLint scaled at 0.75 h, 1 µM (in vitro [10]) [mL/min/kg]","half-life at 0.75 h, 1 µM (in vitro [12]; microsomes) [min]",EC50 [1] [nM],EC50 [2] [nM],CC50 [3] [nM],EC50 [4] [nM],EC50 [5] [nM],selectivity ratio (in vitro [7]),EC50 [9] [nM],"CLint scaled at 0.75 h, 1 µM (in vitro [10]; liver) [mL/min/kg]",microsomal CLint at 1 µM [11] [µL/min/mg],"half-life at 0.75 h, 1 µM (in vitro [12]; liver microsomes) [min]"
Cc1cc(C#N)cc(C)c1Oc1nc(Nc2ccc(C#N)cc2)nc(N)c1Br [ETRAVIRINE],2.9,–,–,–,18,6,> 4600,2,6,–,–,–,–,–
Cc1cc(-c2ccccc2C#N)ccc1Oc1cc(N)nc(Nc2ccc(C#N)cc2)n1,9.84,50,–,–,–,–,28600,–,–,2900,–,–,–,–
Cc1cc(-c2ccc(C#N)cc2)cc(C)c1Oc1cc(N)nc(Nc2ccc(C#N)cc2)n1,4.7,37,–,–,82,8,18100,4,12,3870,16,–,–,–
Cc1cc(-c2ccccc2F)ccc1Oc1cc(N)nc(Nc2ccc(C#N)cc2)n1,11.5,45,–,–,–,–,29500,–,–,2560,–,–,–,–
Cc1ccnc2c1NC(=O)c1cccnc1N2C1CC1 [NEVIRAPINE],–,–,–,–,> 15000,1360,> 15000,5840,–,–,11500,–,–,–
O=C1Nc2ccc(Cl)cc2[C@@](C#CC2CC2)(C(F)(F)F)O1 [EFAVIRENZ],–,–,–,–,–,30,> 6340,–,–,–,7,–,–,–
Cc1cc(-c2ccc(C#N)cc2)ccc1Oc1cc(N)nc(Nc2ccc(C#N)cc2)n1,2,29,–,–,1110,38,10400,3,9,5250,32,–,–,–
Cc1cc(-c2ccccc2)ccc1Oc1cc(N)nc(Nc2ccc(C#N)cc2)n1,19,39,–,–,–,–,20000,–,–,1050,–,–,–,–
Cc1cc(-c2ccc(C#N)c(F)c2)ccc1Oc1cc(N)nc(Nc2ccc(C#N)cc2)n1,6,39,–,–,–,–,6600,–,–,1090,–,–,–,–
Cc1cc(-c2ccc(C#N)c(C#N)c2)ccc1Oc1cc(N)nc(Nc2ccc(C#N)cc2)n1,10.9,90,–,–,–,–,76700,–,–,7040,–,–,–,–
Cc1cc(-c2cccc(C#N)c2)cc(C)c1Oc1cc(N)nc(Nc2ccc(C#N)cc2)n1,7,42,–,–,878,88,20200,8,46,2890,73,–,–,–
Cc1cc(-c2cccc(C#N)c2)ccc1Oc1cc(N)nc(Nc2ccc(C#N)cc2)n1,5.5,41,–,–,6550,287,27400,105,36,4940,450,–,–,–
Cc1cc(Oc2cc(N)nc(Nc3ccc(C#N)cc3)n2)ccc1-c1ccc(C#N)cc1,2.3,26,–,–,1420,71,34300,10,12,15100,33,1.08,36,38.5
COc1cc2cc(C#N)ccc2c(OC)c1Oc1cc(N)nc(Nc2ccc(C#N)cc2)n1,5,–,–,–,–,38,19000,–,–,3500,–,–,–,–
COc1cc(Oc2cc(N)nc(Nc3ccc(C#N)cc3)n2)ccc1-c1ccc(C#N)cc1,2.3,30,–,–,1360,36,12900,12,13,5590,28,–,–,–
O=C(O)Cc1ccccc1Nc1c(Cl)cccc1Cl [DICLOFENAC],–,–,4.49,9.25,–,–,–,–,–,–,–,–,150,–

# The next lines start with results.
EC50 [6] [nM],IC50 [8] [nM],"CLint scaled at 0.75 h, 1 µM (in vitro [10]) [mL/min/kg]","half-life at 0.75 h, 1 µM (in vitro [12]; microsomes) [min]",SMILES,EC50 [1] [nM],EC50 [2] [nM],CC50 [3] [nM],EC50 [4] [nM],EC50 [5] [nM],selectivity ratio (in vitro [7]),EC50 [9] [nM],"CLint scaled at 0.75 h, 1 µM (in vitro [10]; liver) [mL/min/kg]",microsomal CLint at 1 µM [11] [µL/min/mg],"half-life at 0.75 h, 1 µM (in vitro [12]; liver microsomes) [min]"
34.2,102,–,–,Cc1cc(-c2ccc(Cl)cc2)cc(C)c1Oc1cc(N)nc(Nc2ccc(C#N)cc2)n1,–,–,21500,–,–,628,–,–,–,–
9.5,50,–,–,Cc1cc(-c2ccc(F)cc2)ccc1Oc1cc(N)nc(Nc2ccc(C#N)cc2)n1,–,–,20100,–,–,2120,–,–,–,–
7.12,40,–,–,Cc1cc(-c2ccccc2C#N)cc(C)c1Oc1cc(N)nc(Nc2ccc(C#N)cc2)n1,–,–,25400,–,–,3570,–,–,–,–
9.6,46,–,–,Cc1cc(-c2ccccc2F)cc(C)c1Oc1cc(N)nc(Nc2ccc(C#N)cc2)n1,–,–,29300,–,–,3060,–,–,–,–
9.7,45,–,–,Cc1cc(-c2ccccc2)cc(C)c1Oc1cc(N)nc(Nc2ccc(C#N)cc2)n1,–,–,25600,–,–,2640,–,–,–,–
40.1,69,–,–,Cc1ccc(-c2cc(C)c(Oc3cc(N)nc(Nc4ccc(C#N)cc4)n3)c(C)c2)cc1,–,–,10000,–,–,249,–,–,–,–
35.2,121,–,–,Cc1ccccc1-c1cc(C)c(Oc2cc(N)nc(Nc3ccc(C#N)cc3)n2)c(C)c1,–,–,25600,–,–,726,–,–,–,–
15.8,52,–,–,Cc1cc(-c2cccc(F)c2)cc(C)c1Oc1cc(N)nc(Nc2ccc(C#N)cc2)n1,–,–,24700,–,–,1570,–,–,–,–
28.4,100,–,–,Cc1cc(-c2ccccc2Cl)cc(C)c1Oc1cc(N)nc(Nc2ccc(C#N)cc2)n1,–,–,25100,–,–,882,–,–,–,–
5.69,40,–,–,Cc1cc(-c2ccc(C#N)c(C#N)c2)cc(C)c1Oc1cc(N)nc(Nc2ccc(C#N)cc2)n1,–,–,17600,–,–,3090,–,–,–,–
38,85,–,–,Cc1cc(-c2cccc(Cl)c2)cc(C)c1Oc1cc(N)nc(Nc2ccc(C#N)cc2)n1,–,–,22300,–,–,588,–,–,–,–
68.3,152,–,–,Cc1cccc(-c2cc(C)c(Oc3cc(N)nc(Nc4ccc(C#N)cc4)n3)c(C)c2)c1,–,–,27600,–,–,404,–,–,–,–
13.6,61,–,–,Cc1cc(-c2ccc(F)cc2)cc(C)c1Oc1cc(N)nc(Nc2ccc(C#N)cc2)n1,–,–,23100,–,–,1700,–,–,–,–
42.8,122,–,–,COc1ccccc1-c1cc(C)c(Oc2cc(N)nc(Nc3ccc(C#N)cc3)n2)c(C)c1,–,–,21800,–,–,508,–,–,–,–
7.7,54,–,–,COc1ccc(-c2cc(C)c(Oc3cc(N)nc(Nc4ccc(C#N)cc4)n3)c(C)c2)cc1,–,–,10700,–,–,1390,–,–,–,–
5.33,50,–,–,Cc1cc(-c2ccc(C#N)c(F)c2)cc(C)c1Oc1cc(N)nc(Nc2ccc(C#N)cc2)n1,–,–,5000,–,–,937,–,–,–,–
60.6,101,–,–,Cc1cc(-c2cccc(F)c2)ccc1Oc1cc(N)nc(Nc2ccc(C#N)cc2)n1,–,–,11300,–,–,187,–,–,–,–
9.7,73,–,–,COc1cccc(-c2cc(C)c(Oc3cc(N)nc(Nc4ccc(C#N)cc4)n3)c(C)c2)c1,–,–,19300,–,–,1980,–,–,–,–

# From ChEMBL document CHEMBL5131537 (J Med Chem, 2022)
